Counter-ions that a name gives are not always drawn.
How the values were obtained:
hyperglycaemic subjects = settings: 300 mg daily dose; cited from earlier work
[1] = system: adult individuals with moderate hypercholesterolaemia; experiment: 6-arm, double-blind, placebo-controlled pilot clinical study, 12 weeks; type: in vivo, humans
Protocol: All the enrolled subjects were subjected, 14 days prior to enrolment (T-14), to a pre-enrolment visit with blood tests to assess meeting the inclusion criteria. The individuals who at TO met the inclusion criteria underwent a randomization visit at which the respective treatment was assigned and blood tests were performed in relation to the reference parameters. The study lasted 12 weeks. At the end of treatment (T12), the subjects were subjected to an end-of-study visit and blood tests. The parameters investigated in the study are: Body mass index, systolic and diastolic blood pressure, blood glucose, total cholesterol, LDL, HDL, triglycerides, GOT, GPT, gGT, creatinine phosphokinase (CPK). […] The treatment called “placebo” consists of a tablet equal in shape, weight, colour size and flavour to the active tablet but containing “inert” material for the desired effect and consists of: microcrystalline cellulose, magnesium stearate, silicon dioxide, calcium phosphate, chlorophylline dye, yellow iron oxide dye, yellow coating agents. The treatments related to groups C, D, E and F consist of one tablet equal in appearance to the tablets of groups A and B but consisting of the single active ingredient, as described above in addition to excipients. The treatment tablets were packaged in anonymous white bottles, showing only the batch number consisting of an alphanumeric code and the expiration date. Neither the investigator nor the study subjects knew the contents of the bottles. The bottles of each treatment were placed in cardboard boxes containing a letter in a sealed envelope with reference to the batch number and content, to be opened only in case of need, as in cases of serious adverse events. After randomization, each study participant was given the vial with 30 tablets for the specific treatment of the group to which they belonged. All the subjects were instructed to take one tablet in the evening before bed for 12 weeks.

[2] = system: streptozocin-induced diabetic rats; settings: 6 mg/kg for 5 weeks; cited from earlier work
[3] = system: 86 subjects of which 60 with type II diabetes mellitus; settings: 100 mg per day, after 3 months of supplementation; cited from earlier work
[4] = after 12 weeks, printed as reduction of x% or as −x%

In the case of `Cc1ncc(C[n+]2csc(CCO)c2C)c(N)n1` [THIAMINE, thiamine hydrochloride], the diastolic pressure (hyperglycaemic subjects) is given as “reduces”, the systolic pressure (hyperglycaemic subjects) is given as “reduces” and the “reductions in the parameters of interest” value ([1]; after 12 weeks) is given as “did not show statistically significant reductions”. The “increase of HDL cholesterol (HDL-C)” value ([1]; after 12 weeks of treatment) was “no changes”, the “reduction of LDL cholesterol (LDL-C)” value ([1]; after 12 weeks of treatment) was “did not achieve a percentage reduction” and the “reduction of fasting plasma glucose (FPG)” value [1, 4] was “not detected”. For the same molecule, the “reduction of triglycerides (TG)” value [1, 4] was −1%, the HDL-c [2] was “increases” and the insulin [2] was “increases”. For the same molecule, the malonyldialdehyde [2] was “reduces”, the serum glucose [2] was “reduces” and the total cholesterol [2] was “reduces”. For the same molecule, the triglycerides [2] was “reduces” and the total cholesterol [3] was “significantly reduces”.

Reference: patent publication US20250127835A1, “COMPOSITION BASED ON PLANT EXTRACTS AND USE THEREOF FOR THE PREVENTION AND/OR TREATMENT OF CARBOHYDRATE AND LIPID DYSMETABOLISM” (ESSERRE PHARMA SRL, priority 2021, published 2025)
